Three compounds from article PMC12718374, “Structural basis and evolutionary pathways of glycerol-1-phosphate transport in marine bacteria” (Proceedings of the National Academy of Sciences of the …, 2025) can be followed below.

The target of experiment [1] is GpxB from Sulfitobacter geojensis EhN01. The experiment can be described thus: MST binding affinity assay, purified GpxB from Sulfitobacter geojensis EhN01. Conditions: GpxB of Sulfitobacter geojensis EhN01. The method, then: (§1) The binding affinity of the purified proteins to G1P and other structurally related chemicals was measured using a Monolith NT.115 (NanoTemper Technologies, Munich, Germany). Proteins (160 nM) were labeled in assay buffer (PBS containing 0.05% (v/v) Tween-20) using the Protein Labelling Kit RED-Tris-NTA (NanoTemper Technologies). For binding assays, the buffer was replaced by 20 mM HEPES pH 7.4, 100 mM NaCl, 0.05% (v/v) Tween-20. Each chemical was prepared by serial dilution in the same assay buffer and mixed with the same volume of labeled protein (at a final concentration of 80 nM). The mixture was then loaded onto Monolith™ NT.115 Series capillaries (NanoTemper Technologies, Germany) and thermophoresis was measured at 22 °C using 60% excitation power and medium MST power. Data were analyzed using MO. Affinity Analysis v2.3 software (NanoTemper Technologies).
(§2) The full-length codon optimized GpxB (MED193_19449) of Phaeobacter sp. MED193 (WP_009811375.1), and four GpxB homologs (Marinobacter sp. DSM11874, MBB6025290.1; S. pseudonitzschiae DSM26824, WP_037914517.1; Sulfitobacter sp. EE-36, WP_005852758.1; S. geojensis sp. EhN01, WP_064222091.1) were chemically synthesized by Beijing Tsingke Biotech Co., Ltd. (China), and subcloned into pET-22b (Novagen, America) with a C-terminal His-tag. An N-terminal signal peptide truncated [residues 1−22 predicted by SignalP 5.0 Server ([36])] […]

The test system of experiment [2] is GpxB^DSM11874 alanine mutants (Tyr138, His199, Thr247, Arg223). The experiment can be described thus: MST binding affinity assay of site-directed alanine mutants of GpxB^DSM11874. Further details: species or system Marinobacter sp. DSM11874. Conditions: alanine mutants of Tyr138, His199, Thr247, Arg223 versus wild-type GpxB^DSM11874. The method, then:
as §1, §2

The target in experiment [3] is Phaeobacter sp. MED193 GpxB (MED193_19449) (Roseobacter sp. MED193, UniProt A3X5C8). The experiment can be described thus: Microscale thermophoresis (MST) binding affinity assay, purified recombinant GpxB. The following applies: 22 °C, 20 mM HEPES pH 7.4, 100 mM NaCl, recombinant GpxB of Phaeobacter sp. MED193. The method, then:
as §1, §2
On the technique in general: Microscale thermophoresis detects binding through changes in fluorescence in a small temperature gradient.

Another experiment concerns Phaeobacter sp. MED193. The experiment can be described thus: Growth on substrate as the sole C source, wild type. The format is cell-based. The following applies: defined artificial seawater medium, 5 mM substrate. As to the method: (§3) Phaeobacter sp. MED193 and its mutant strains were routinely maintained on 1.5% (w/v) Difco marine broth 2216 agar with antibiotics as appropriate. To test the growth of Phaeobacter sp. MED193 on G1P/G3P, cells were first cultivated in 5 mL marine broth medium overnight at 30 °C with shaking at 150 rpm. A 1% (v/v) inoculum was then transferred to defined artificial seawater medium supplemented with 50 µM phosphate ([6]). After 24 h growth, 12.5 mL cultures were collected by centrifugation and inoculated into 100 mL artificial seawater medium. Subsequently, either G1P or G3P (purchased from Sigma-Aldrich, St. Louis, USA) was added to a final concentration of 5 mM as the sole C source. Cells (40 mL) were harvested after 48 h and used for proteomics.

For experiment [4], the target named is Phaeobacter sp. MED193 UgpB (MED193_07903) (Phaeobacter sp. MED193 (Roseobacter sp. MED193), UniProt Z9VP90JAR2). The experiment in a line: MST binding affinity assay, purified recombinant UgpB. The following applies: 22 °C, 20 mM HEPES pH 7.4, 100 mM NaCl, recombinant UgpB of Phaeobacter sp. MED193. As to the method:
as §1, §2

Experiment [5] concerns the target GpxB from Sulfitobacter pseudonitzschiae DSM26824. The experiment can be described thus: MST binding affinity assay, purified GpxB from Sulfitobacter pseudonitzschiae DSM26824. Conditions: GpxB of Sulfitobacter pseudonitzschiae DSM26824. The method, then:
as §1, §2

Experiment [6] concerns the target GpxB from Sulfitobacter sp. EE-36. The experiment can be described thus: MST binding affinity assay, purified GpxB from Sulfitobacter sp. EE-36. The following applies: GpxB of Sulfitobacter sp. EE-36. As to the method:
as §1, §2

Experiment [7] concerns Phaeobacter sp. MED193 ∆ugpB∆gpxB double mutant. The experiment can be described thus: Growth on substrate as the sole carbon source, ∆ugpB∆gpxB double mutant. The format is cell-based. The following applies: 5 mM substrate. As to the method: as §3
The gpxBugpB double mutant was generated using a conjugation protocol as described previously ([35]). First, two homologous regions of an upstream and a downstream fragment flanking the gpxB gene were cloned into suicide plasmid pK18mobsacB, together with a spectinomycin (Spec) resistance cassette which was inserted in between the upstream and downstream fragments. The resulting plasmid was then mobilized into Phaeobacter sp. MED193 using E. coli S17.1 lambda pir and transconjugants selected on marine broth MB agar containing Spec (200 µg mL^−1). […] The same protocol was repeated to generate the gpxBugpB double mutant in the gpxB single mutant background, except that a Gentamycin (Gm) resistant cassette was inserted in between the upstream and downstream fragments of ugpB into pK18mobsacB. All primers, plasmids, and bacterial strains used are listed in SI Appendix, Table S6.

The target in experiment [8] is GpxB^DSM11874 (GpxB homolog from Marinobacter sp. DSM11874) (Marinobacter sp. DSM 11874, UniProt Z9YUV0DEE1). The experiment can be described thus: MST binding affinity assay, purified GpxB^DSM11874. The following applies: 22 °C, GpxB^DSM11874 of Marinobacter sp. DSM11874. As to the method: as §1, §2
GpxB^DSM11874 (GpxB homolog from Marinobacter sp. DSM11874), sequence (Z9YUV0DEE1 21-315 limits assumed): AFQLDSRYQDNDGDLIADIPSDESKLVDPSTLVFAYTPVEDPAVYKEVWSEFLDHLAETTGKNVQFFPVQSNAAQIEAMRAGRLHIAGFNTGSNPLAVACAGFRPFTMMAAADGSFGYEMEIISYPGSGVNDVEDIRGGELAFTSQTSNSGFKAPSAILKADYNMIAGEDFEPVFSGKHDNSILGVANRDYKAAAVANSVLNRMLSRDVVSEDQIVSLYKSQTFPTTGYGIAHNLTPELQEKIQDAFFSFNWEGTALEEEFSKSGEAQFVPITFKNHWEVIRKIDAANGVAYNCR

Phaeobacter sp. MED193 GpxB (MED193_19449), sequence (A3X5C8 1-326 limits assumed): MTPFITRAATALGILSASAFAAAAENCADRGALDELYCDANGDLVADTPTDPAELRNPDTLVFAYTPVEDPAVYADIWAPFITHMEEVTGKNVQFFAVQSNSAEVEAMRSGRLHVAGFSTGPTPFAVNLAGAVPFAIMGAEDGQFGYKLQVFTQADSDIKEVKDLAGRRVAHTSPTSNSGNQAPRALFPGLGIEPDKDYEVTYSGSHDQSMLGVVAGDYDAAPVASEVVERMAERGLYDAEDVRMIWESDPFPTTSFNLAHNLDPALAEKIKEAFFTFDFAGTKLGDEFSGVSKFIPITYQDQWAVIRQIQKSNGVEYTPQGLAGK
Phaeobacter sp. MED193 UgpB (MED193_07903), sequence (Z9VP90JAR2 43-453 limits assumed): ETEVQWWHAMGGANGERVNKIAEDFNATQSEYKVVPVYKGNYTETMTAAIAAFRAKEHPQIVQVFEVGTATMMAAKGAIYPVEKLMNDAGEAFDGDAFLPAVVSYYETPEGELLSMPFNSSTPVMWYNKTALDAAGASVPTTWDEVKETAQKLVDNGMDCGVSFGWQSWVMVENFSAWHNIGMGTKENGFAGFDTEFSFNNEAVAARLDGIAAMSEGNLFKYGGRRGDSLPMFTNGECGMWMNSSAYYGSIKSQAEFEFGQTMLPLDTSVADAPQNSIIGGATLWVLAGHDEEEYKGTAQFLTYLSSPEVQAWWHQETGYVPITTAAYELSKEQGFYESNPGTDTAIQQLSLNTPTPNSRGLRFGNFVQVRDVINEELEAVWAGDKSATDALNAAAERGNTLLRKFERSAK

For orientation: Kd means the concentration at which binding is half-saturated. For `O=P(O)(O)OC[C@@H](O)CO` [G1P, sn-glycerol-1-phosphate], the binding affinity result in experiment [1], in experiment [5] and in [6] was “low-µM” each time. Also, the “reduction in binding affinity of alanine mutants” value in [2] is recorded as 10- to 100 fold. For the same compound, the Kd in experiment [3] was 2480 ± 140 nM; in experiment [4] it was 2360 ± 350 nM; in experiment [8], 1720 ± 280 nM. Besides, the “growth on the substance as the sole C source” value (“growth … as the sole C source” below) with Phaeobacter sp. MED193 is given as “grows”. Further, in experiment [7], the “growth on the substance as the sole carbon source” value (shortened to “growth … as the sole carbon source”) is reported as “unable to grow”.

`O=P(O)(O)OC[C@H](O)CO` [G3P, sn-glycerol-3-phosphate]: the binding affinity result in experiment [1], in experiment [5] and in experiment [6] was “low-µM” in each case. For the same compound, the Kd amounted to 1020 ± 140 nM in [3], 800 ± 260 nM in [4] and 1060 ± 150 nM in experiment [8]. Besides, the “growth … as the sole C source” value in the experiment on Phaeobacter sp. MED193 is “grows”. The “growth … as the sole carbon source” value in experiment [7] is on record as “unable to grow”.

`OCC(O)CO` [glycerol]: the “growth … as the sole C source” value in the experiment on Phaeobacter sp. MED193 is “grows”. In experiment [7], the “growth … as the sole carbon source” value was “unaffected”.
